Test: Aqueous solubility of apixaban
Format: physicochemical
Conditions: aqueous medium, aqueous buffer; room temperature, pH 6.8

## COc1ccc(-n2nc(C(N)=O)c3c2C(=O)N(c2ccc(N4CCCCC4=O)cc2)CC3)cc1 [apixaban, 1-(4-methoxyphenyl)-7-oxo-6-[4-(2-oxopiperidin-1-yl)phenyl]-4,5,6,7-tetrahydro-1H-pyrazolo[3.4-c]pyridine-3-carboxamide]
  solubility: < 1 µg/mL
